Results as given in patent publication US7833553B2, “Sulfur-containing proanthocyanidin oligomer compositon and process for producing the same” (Amino Up Chemical Co. Ltd., priority 2003, dated 2010).

Key:
[1] = DPPH radical scavenging effect; type: biochemical; conditions: 60 μM DPPH, room temperature 30 minutes, absorbance 520 nm
Procedure: 100 μl of a DPPH solution (60 μM ethanol solution) was charged in a 96-well microplate and 100 μl of an ethanol solution as a test sample or 100 μl of ethanol as a control was added, and the whole was gently mixed and left to stand at room temperature for 30 minutes. Then, absorbance at 520 nm was measured and a DPPH radical scavenging ability was calculated according to the following formula. 50% effective concentration (EC50) was calculated from the DPPH radical scavenging ability and concentrations of gradually diluted test samples. DPPH radical scavenging ability(%)=[(1−(absorbance of test sample))/(absorbance of control)]×100
50% effective concentration (EC50) was calculated from DPPH radial scavenging abilities in gradual concentrations of each sample.

[2] = Superoxide dismutase (SOD)-like activity (SOD Test Wako kit); type: biochemical
Procedure: With respect to Substances 1 to 4 and Comparative Substances 1 and 2 which were the same as those used in Test Example 1, SOD-like activity was measured using a blood SOD activity measuring kit (SOD Test Wako: manufactured by Wako Pure Chemical Industries, Ltd.). SOD-like activity was calculated according to the following formula and 50% effective concentration (EC50) was calculated based on the relationship with the concentration of test sample. SOD-like activity(%)=[(1−(absorbance of test sample))/(absorbance of control)]×100
EC50 was calculated from SOD-like activities in gradual concentrations of each sample.

catechin [Comparative Substance 2]
EC50 in DPPH radical scavenging [1]: 1.71 µg/mL | EC50 in SOD-like activity [2]: 62.0 µg/mL
